From PubChem BioAssay (NCI)
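Protocol summary: plate cells (96-well), add compound at 5 concentrations, incubate 48 h, interpolate endpoints linearly. At the GI50, growth is halved. Definition used: TGI = concentration required for complete inhibition of growth.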

Assays:
Assay in all cases: DTP human tumour cell line panel, 48 h
[1] = system: IGROV1 ovarian
[2] = system: U251 CNS
[3] = system: 786-0 renal
[4] = system: TK-10 renal
[5] = system: MALME-3M melanoma
[6] = system: NCI/ADR-RES ovarian
[7] = system: SF-268 CNS
[8] = system: MDA-MB-231 breast
[9] = system: BT-549 breast
[10] = system: MDA-MB-435

SMILES | GI50 [1] [µM] | TGI [1] [µM] | GI50 [2] [µM] | TGI [2] [µM] | GI50 [3] [µM] | TGI [3] [µM] | GI50 [4] [µM] | TGI [4] [µM] | GI50 [5] [µM] | TGI [5] [µM] | GI50 [6] [µM] | TGI [6] [µM] | GI50 [7] [µM] | TGI [7] [µM] | GI50 [8] [µM] | TGI [8] [µM] | GI50 [9] [µM] | TGI [9] [µM] | GI50 [10] [µM] | TGI [10] [µM]
CCC[CH2][Sn]1([CH2]CCC)[O]Cc2nc(C)ccc2[O]1 | 14.9 | 28.8 | 4.73 | 16.7 | 5.04 | 16.8 | 3.97 | 14.7 | 5.03 | 14.5 | – | – | – | – | – | – | – | – | – | –
CS(=O)(=O)c1ccc([C@H]2O[C@@H](CO)C[C@]2(O)c2ccc(S(C)(=O)=O)cc2)cc1 | > 100 | > 100 | > 100 | > 100 | > 100 | > 100 | > 100 | > 100 | > 100 | > 100 | > 100 | > 100 | > 100 | > 100 | > 100 | > 100 | > 100 | > 100 | > 100 | > 100
O=C(/C=C/c1c(O)ccc2ccccc12)c1cccc(O)c1 | – | > 100 | – | > 100 | – | > 100 | – | > 100 | – | > 100 | – | – | – | > 100 | – | – | – | – | – | –
N#Cc1cc([N+](=O)[O-])ccc1NC(=O)C(=O)Nc1n[nH]c(N)n1 | – | > 100 | – | > 100 | – | > 100 | – | > 100 | – | > 100 | – | – | – | > 100 | – | – | – | – | – | –
COc1ccc(-c2cnnc3c(-c4cccc(C(F)(F)F)c4)cnn23)cc1 | 1.97 | > 100 | 3.61 | > 100 | 2.76 | > 100 | – | – | – | – | 3.05 | > 100 | 1.78 | 7.4 | 3.55 | > 100 | 3.4 | > 100 | 5.04 | > 100
OCc1c[nH]c2ccccc12 | 14.1 | 42.2 | 21.9 | 62 | 33.7 | 93.3 | 44.5 | > 100 | – | – | 23.2 | 71.4 | 33.4 | > 100 | 14.7 | 47.7 | 28.9 | 73.3 | 19.8 | 48.2
CC(=O)CNC(=O)OC(C)(C)C | – | > 100 | – | > 100 | – | > 100 | – | > 100 | – | > 100 | – | – | – | > 100 | – | – | – | – | – | –
CC(C)C(=O)NC(=S)Nc1ccc([N+](=O)[O-])cc1C#N | – | > 100 | – | > 100 | – | > 100 | – | > 100 | – | > 100 | – | – | – | > 100 | – | – | – | – | – | –
O/N=C/C1c2ccccc2-c2ccccc21 | – | – | – | 44 | – | 21.9 | – | 34.9 | – | 31.9 | – | 33.8 | – | 37.6 | – | 29 | – | 33.1 | – | 34.3
OCC(O)CC[CH2][Sn]([Br])([c]1ccccc1)[c]1ccccc1 (stereo not given) | > 100 | > 100 | > 100 | > 100 | > 100 | > 100 | > 100 | > 100 | – | – | – | – | – | – | – | – | – | – | – | –
